# Patent US10253341B2, “Mutant sugar isomerase with improved activity, derived from E. coli, and production of L-gulose using the same” (priority 2014, dated 2019)
# Experiments:
# Type in all cases: biochemical
# [1] = biological target: Escherichia coli O157:H7 sugar isomerase (EcSI, SEQ ID NO: 3) variant I112C T56M (Escherichia coli, UniProt A0A6M7H989, I112C/T56M)
# [2] = biological target: Escherichia coli O157:H7 sugar isomerase (EcSI, SEQ ID NO: 3) variant I112C T56M M92L (Escherichia coli, UniProt A0A6M7H989, I112C/M92L/T56M)
# [3] = biological target: Escherichia coli O157:H7 sugar isomerase (EcSI, SEQ ID NO: 3) variant T56M (Escherichia coli, UniProt A0A6M7H989, T56M)
# [4] = biological target: Escherichia coli O157:H7 sugar isomerase (EcSI), wild type, SEQ ID NO: 3 (Escherichia coli, UniProt A0A6M7H989)
# [5] = biological target: Escherichia coli O157:H7 sugar isomerase (EcSI, SEQ ID NO: 3) variant I112C (Escherichia coli, UniProt A0A6M7H989, I112C)
# [6] = biological target: Escherichia coli O157:H7 sugar isomerase (EcSI, SEQ ID NO: 3) variant M92L (Escherichia coli, UniProt A0A6M7H989, M92L)
smiles,measurement,setting,value
OCC1(O)OC[C@H](O)[C@@H](O)[C@@H]1O (stereo partly drawn) [L-sorbose],kcat,[1],144 S^−1
same,kcat/Km,[1],1.53 mM^−1S^−1
same,kcat,[2],245 S^−1
same,kcat/Km,[2],2.28 mM^−1S^−1
same,kcat,[3],101 S^−1
same,kcat/Km,[3],0.85 mM^−1S^−1
same,kcat,[4],84 S^−1
same,kcat/Km,[4],0.63 mM^−1S^−1
same,kcat,[5],88 S^−1
same,kcat/Km,[5],0.92 mM^−1S^−1
same,kcat,[6],105 S^−1
same,kcat/Km,[6],0.70 mM^−1S^−1
